Data taken from patent US10689622B2, “Culture medium for proliferating stem cell, which contains sulfated compound” (AJINOMOTO CO., INC., priority 2012, dated 2020).

Experiment: Measurement of content level of sulfur in test compound (ICP)
Assay type: physicochemical
Summary of the method: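 Sulfur content was measured by ICP emission spectrometry on samples containing 0.01 wt % test compound. Values came from a calibration curve of sulfur standards at 0, 1, 10, 30 and 50 ppm.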

[1] = compound used in the Examples, stated in the description

O=S(=O)([O-])OC[C@H]1O[C@@](COS(=O)(=O)[O-])(O[C@H]2O[C@H](COS(=O)(=O)[O-])[C@@H](OS(=O)(=O)[O-])[C@H](OS(=O)(=O)[O-])[C@H]2OS(=O)(=O)[O-])[C@@H](OS(=O)(=O)[O-])[C@@H]1OS(=O)(=O)[O-].[K+].[K+].[K+].[K+].[K+].[K+].[K+].[K+] [sucrose 8SO3K]
sulfur content Found (inorganic analysis) (ICPS-8100, evaluation samples containing 0.01 wt % test compound): 17 wt %
sulfate group / sulfo group content level [1]: 48.8 wt %
sulfur content (content level of sulfur) [1]: 19.5 wt %
